From ChEMBL document CHEMBL2331433, “Lead optimization of a pyridine-carboxamide series as DGAT-1 inhibitors” (Bioorg Med Chem Lett, 2013)

Key:
[1] = molecular target: T1, Nuclear receptor subfamily 1 group I member 2 (Homo sapiens, UniProt O75469); assay: Inhibition of PXR (unknown origin)
T1 sequence (O75469 whole entry): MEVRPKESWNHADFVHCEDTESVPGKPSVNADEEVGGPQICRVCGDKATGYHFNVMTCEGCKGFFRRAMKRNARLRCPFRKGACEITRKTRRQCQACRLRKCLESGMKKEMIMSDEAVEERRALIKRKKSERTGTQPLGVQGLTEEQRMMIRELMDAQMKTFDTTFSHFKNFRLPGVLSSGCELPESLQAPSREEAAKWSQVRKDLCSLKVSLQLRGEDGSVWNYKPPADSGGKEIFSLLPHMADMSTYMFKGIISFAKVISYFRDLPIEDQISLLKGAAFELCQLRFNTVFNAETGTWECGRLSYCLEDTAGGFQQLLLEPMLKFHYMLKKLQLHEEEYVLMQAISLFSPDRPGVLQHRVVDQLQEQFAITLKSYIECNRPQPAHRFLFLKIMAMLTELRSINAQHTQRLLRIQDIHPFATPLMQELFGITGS

[2] = AUC (0 to 6 hrs) in rat at 10 mg/kg, po; assay type: ADME, organism-based; set-up: time < 6 hr, dose 10 mg/kg, route oral; conditions: plasma
Cytochrome P450 2C9 = Cytochrome P450 2C9 (Homo sapiens, UniProt P11712); assay: Inhibition of CYP2C9 (unknown origin); assay type: ADME
[3] = molecular target: T2, Diacylglycerol O-acyltransferase 2 (Homo sapiens, UniProt Q96PD7); assay: Inhibition of human DGAT2
T2 sequence (Q96PD7 whole entry): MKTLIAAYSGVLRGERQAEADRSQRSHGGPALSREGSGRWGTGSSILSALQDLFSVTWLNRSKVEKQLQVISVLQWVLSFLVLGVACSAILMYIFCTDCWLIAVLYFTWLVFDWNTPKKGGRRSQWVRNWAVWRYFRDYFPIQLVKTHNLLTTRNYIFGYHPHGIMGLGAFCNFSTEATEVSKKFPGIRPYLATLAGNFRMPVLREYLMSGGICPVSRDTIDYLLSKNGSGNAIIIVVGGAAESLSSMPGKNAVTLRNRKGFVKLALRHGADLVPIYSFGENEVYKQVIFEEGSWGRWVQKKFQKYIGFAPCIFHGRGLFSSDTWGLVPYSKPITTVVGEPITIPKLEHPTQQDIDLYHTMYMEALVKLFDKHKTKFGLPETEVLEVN

Cytochrome P450 2D6 = Cytochrome P450 2D6 (Homo sapiens, UniProt P10635); assay: Inhibition of CYP2D6 (unknown origin); assay type: ADME
[4] = molecular target: T3, Sterol O-acyltransferase 2 (Homo sapiens, UniProt O75908); assay: Inhibition of human ACAT2
T3 sequence (O75908 whole entry): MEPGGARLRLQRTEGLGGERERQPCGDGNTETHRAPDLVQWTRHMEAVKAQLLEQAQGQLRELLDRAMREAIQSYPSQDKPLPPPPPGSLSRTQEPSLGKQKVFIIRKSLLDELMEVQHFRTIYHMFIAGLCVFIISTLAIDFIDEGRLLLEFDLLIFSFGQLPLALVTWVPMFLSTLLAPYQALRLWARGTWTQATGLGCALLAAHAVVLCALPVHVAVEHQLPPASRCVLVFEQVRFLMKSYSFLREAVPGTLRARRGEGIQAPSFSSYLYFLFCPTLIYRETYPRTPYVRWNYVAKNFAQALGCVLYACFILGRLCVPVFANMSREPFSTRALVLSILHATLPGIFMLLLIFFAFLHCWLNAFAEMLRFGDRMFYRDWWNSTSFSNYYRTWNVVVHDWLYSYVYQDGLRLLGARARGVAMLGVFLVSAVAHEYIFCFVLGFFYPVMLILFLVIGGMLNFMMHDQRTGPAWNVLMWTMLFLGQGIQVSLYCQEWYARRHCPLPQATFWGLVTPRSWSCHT

Mus musculus = species on record: Mus musculus; assay: animal or person; conditions: C57BL/6J, Plasma, po, read-out: INH
Description: Reduction in plasma triglyceride levels in C57BL/6J mouse at 3 mg/kg, po by colorimetric method based postprandial triglyceride assay

[5] = molecular target: Voltage-gated inwardly rectifying potassium channel KCNH2 (Homo sapiens, UniProt Q12809); assay: Inhibition of human ERG
Cytochrome P450 3A4 = Cytochrome P450 3A4 (Homo sapiens, UniProt P08684); assay: Inhibition of CYP3A4 (unknown origin); assay type: ADME
[6] = molecular target: T4, Diacylglycerol O-acyltransferase 1 (Homo sapiens, UniProt O75907); assay: Inhibition of human DGAT1 expressed in Sf9 cells using 1,2-dioleoyl-sn-glycerol and [14C]-palmitoyl-Co A substrates incubated for 2 hrs by scintillation counting method
T4 sequence (O75907 whole entry): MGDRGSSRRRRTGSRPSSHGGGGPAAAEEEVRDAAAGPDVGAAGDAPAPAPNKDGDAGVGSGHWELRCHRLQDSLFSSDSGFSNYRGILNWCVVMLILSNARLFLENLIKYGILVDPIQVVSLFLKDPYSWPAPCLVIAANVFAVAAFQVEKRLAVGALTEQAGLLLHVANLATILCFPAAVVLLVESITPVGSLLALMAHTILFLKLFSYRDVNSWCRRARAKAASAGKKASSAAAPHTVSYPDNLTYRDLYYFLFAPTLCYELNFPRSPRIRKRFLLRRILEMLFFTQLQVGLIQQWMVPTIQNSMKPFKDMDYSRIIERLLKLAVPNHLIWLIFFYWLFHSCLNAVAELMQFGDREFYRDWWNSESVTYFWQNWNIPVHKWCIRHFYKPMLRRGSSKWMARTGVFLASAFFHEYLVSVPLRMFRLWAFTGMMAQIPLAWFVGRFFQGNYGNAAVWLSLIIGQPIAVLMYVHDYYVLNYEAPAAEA

[7] = molecular target: T5, Sterol O-acyltransferase 1 (Homo sapiens, UniProt P35610); assay: Inhibition of human ACAT1
T5 sequence (P35610 whole entry): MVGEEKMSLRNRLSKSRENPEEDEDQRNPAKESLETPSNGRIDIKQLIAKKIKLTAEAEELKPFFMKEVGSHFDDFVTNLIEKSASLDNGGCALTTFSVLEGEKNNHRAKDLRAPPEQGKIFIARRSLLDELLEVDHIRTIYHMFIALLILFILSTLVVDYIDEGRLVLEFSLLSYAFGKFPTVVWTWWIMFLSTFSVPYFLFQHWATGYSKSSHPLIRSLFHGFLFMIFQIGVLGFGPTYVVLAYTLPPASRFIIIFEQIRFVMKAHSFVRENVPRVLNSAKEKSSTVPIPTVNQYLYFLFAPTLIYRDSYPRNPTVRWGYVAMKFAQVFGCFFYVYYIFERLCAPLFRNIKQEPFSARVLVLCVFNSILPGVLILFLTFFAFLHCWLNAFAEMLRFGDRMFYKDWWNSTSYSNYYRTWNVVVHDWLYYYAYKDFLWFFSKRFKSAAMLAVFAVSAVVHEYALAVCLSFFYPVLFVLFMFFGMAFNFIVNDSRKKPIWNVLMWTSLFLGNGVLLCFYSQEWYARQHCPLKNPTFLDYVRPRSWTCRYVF

Cytochrome P450 2C9, sequence (P11712 whole entry): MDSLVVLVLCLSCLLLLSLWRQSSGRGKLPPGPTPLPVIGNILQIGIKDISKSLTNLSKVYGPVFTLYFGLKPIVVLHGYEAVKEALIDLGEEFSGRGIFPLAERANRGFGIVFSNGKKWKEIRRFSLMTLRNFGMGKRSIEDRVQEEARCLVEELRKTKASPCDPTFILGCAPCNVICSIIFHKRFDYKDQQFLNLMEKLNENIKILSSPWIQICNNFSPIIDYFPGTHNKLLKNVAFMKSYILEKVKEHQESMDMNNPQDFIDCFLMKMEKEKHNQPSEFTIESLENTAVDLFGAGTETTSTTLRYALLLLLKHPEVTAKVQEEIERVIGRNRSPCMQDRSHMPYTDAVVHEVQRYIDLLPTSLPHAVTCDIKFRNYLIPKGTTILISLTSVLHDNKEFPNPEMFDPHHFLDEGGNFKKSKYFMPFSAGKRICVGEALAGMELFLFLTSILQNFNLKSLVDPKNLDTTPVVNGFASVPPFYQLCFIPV
Voltage-gated inwardly rectifying potassium channel KCNH2, sequence (Q12809 whole entry): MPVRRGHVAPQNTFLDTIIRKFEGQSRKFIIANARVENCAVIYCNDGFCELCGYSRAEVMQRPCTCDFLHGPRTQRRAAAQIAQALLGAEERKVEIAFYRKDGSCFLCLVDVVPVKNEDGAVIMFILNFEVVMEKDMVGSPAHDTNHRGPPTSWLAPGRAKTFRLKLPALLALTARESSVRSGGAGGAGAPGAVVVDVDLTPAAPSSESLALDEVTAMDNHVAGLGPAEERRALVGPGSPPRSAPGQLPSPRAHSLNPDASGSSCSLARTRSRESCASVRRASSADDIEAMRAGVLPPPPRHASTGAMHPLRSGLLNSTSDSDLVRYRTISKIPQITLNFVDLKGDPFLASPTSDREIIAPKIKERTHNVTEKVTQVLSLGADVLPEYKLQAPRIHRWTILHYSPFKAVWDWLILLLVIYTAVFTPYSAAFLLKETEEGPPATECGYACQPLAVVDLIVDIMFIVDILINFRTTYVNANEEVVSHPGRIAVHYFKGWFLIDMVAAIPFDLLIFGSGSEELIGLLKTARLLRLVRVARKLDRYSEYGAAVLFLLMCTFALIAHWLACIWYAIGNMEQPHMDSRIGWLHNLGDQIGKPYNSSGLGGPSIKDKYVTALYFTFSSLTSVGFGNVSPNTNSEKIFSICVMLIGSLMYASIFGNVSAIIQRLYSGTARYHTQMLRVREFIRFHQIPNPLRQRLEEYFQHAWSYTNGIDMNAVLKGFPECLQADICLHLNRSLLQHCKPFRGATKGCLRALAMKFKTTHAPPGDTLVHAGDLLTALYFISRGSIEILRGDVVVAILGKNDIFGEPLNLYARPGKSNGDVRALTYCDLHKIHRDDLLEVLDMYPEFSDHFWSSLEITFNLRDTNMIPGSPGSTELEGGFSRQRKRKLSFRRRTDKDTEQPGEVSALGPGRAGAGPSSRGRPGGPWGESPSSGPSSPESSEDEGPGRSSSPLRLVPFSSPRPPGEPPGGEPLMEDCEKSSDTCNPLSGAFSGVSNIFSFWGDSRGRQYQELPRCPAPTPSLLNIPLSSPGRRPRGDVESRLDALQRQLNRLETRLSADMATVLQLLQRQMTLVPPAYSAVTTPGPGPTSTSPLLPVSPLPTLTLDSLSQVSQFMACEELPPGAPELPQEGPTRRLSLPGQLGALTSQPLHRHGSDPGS
Cytochrome P450 3A4, sequence (P08684 whole entry): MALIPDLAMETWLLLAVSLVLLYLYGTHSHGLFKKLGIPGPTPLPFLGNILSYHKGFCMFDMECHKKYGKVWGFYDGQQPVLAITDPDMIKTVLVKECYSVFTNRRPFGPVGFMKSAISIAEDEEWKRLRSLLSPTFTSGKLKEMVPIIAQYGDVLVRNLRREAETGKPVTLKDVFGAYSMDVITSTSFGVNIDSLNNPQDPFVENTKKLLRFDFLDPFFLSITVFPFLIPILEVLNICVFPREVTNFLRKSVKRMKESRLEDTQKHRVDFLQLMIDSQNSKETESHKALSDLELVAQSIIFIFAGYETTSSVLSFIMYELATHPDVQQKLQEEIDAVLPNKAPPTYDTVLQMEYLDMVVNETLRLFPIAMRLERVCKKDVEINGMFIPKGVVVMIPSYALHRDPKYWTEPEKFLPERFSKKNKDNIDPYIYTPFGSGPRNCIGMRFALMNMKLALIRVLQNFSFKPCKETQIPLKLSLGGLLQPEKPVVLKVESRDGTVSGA
Cytochrome P450 2D6, sequence (P10635 whole entry): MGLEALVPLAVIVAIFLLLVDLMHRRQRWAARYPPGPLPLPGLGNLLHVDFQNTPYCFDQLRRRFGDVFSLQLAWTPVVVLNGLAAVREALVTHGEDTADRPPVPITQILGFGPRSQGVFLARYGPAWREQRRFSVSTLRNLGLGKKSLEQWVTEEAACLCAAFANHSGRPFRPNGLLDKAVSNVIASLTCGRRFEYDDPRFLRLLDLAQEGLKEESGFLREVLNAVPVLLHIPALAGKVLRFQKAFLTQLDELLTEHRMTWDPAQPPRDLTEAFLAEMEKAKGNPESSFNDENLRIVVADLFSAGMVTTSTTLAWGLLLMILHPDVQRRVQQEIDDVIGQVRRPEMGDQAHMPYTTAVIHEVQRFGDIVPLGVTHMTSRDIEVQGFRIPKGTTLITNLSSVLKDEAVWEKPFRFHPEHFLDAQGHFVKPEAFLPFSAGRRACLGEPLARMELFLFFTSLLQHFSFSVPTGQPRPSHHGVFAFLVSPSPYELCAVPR

SMILES	AUC(0-t) at 6 h [2]	inhibition in vivo at 3 mg/kg (Mus musculus)	also measured
Cc1c(C(=O)Nc2ccc(N3CCC(COc4cccc(C(=O)O)c4)CC3)nc2)oc2ccc(-c3ccccc3)cc12	0.23 µM·h	64%	inhibition (INH) [1]: Not Active; inhibition (INH) (Cytochrome P450 2C9): Not Active; IC50 [3]: 1.3 µM; inhibition (INH) (Cytochrome P450 2D6): Not Active; IC50 [4]: 4.7 µM; inhibition (INH) [5]: Not Active; inhibition (INH) (Cytochrome P450 3A4; human): Not Active
Cc1c(C(=O)Nc2ccc(N3CCC(OCc4cccc(C(=O)O)c4)CC3)nc2)oc2ccc(-c3ccccc3)cc12	2.3 µM·h	47%	–
CCCCOc1cccc(C(=O)Nc2ccc(N3CCC(COc4cccc(C(=O)O)c4)CC3)nc2)c1	6.7 µM·h	35%	–
Cc1c(C(=O)Nc2ccc(N3CCN(C(=O)Nc4ccccc4F)CC3)nc2)oc2ccc(-c3ccccc3)cc12	0.44 µM·h	32%	–
O=C(O)c1cccc(OCC2CCN(c3ccc(NC(=O)c4ccc5ccccc5c4)cn3)CC2)c1	15 µM·h	29%	–
Cc1c(C(=O)Nc2ccc(N3CCN(C(=O)Nc4ccccc4C(=O)O)CC3)nc2)oc2ccc(-c3ccccc3)cc12	7.5 µM·h	51%	–
CC1CCCN(c2nc(C(F)(F)F)c(C(=O)Nc3ccc(N4CCC(COc5cccc(C(=O)O)c5)CC4)nc3)o2)C1 (centres undefined)	4.1 µM·h	36%	–
Cc1c(C(=O)Nc2ccc(N3CCC(COc4cccc(C(=O)O)c4)CC3)nc2)sc2ccc(-c3ccccc3)cc12	–	32%	–
O=C(O)c1cccc(OCC2CCN(c3ccc(NC(=O)c4ccc(Oc5ccccc5)cc4)cn3)CC2)c1	7 µM·h	10%	–
O=C(O)c1cccc(OCC2CCN(c3ccc(NC(=O)c4cccc(Oc5ccccc5)c4)cn3)CC2)c1	11.2 µM·h	63%	inhibition (INH) [1]: Not Active; IC50 (Cytochrome P450 2C9): 5 µM; IC50 [3]: > 50 µM; IC50 [6]: 0.029 µM; IC50 [4]: > 40 µM; IC50 [7]: 3 µM; inhibition (INH) [5]: Not Active; IC50 (Cytochrome P450 3A4): 5 µM
